{"source": "paper PMC8232895", "about": "(Drug Design, Development and Therapy, 2021)", "key": {"[1]": {"test": "DPPH free radical scavenging assay", "conditions": "for DPPH radical % Inhibition (Mean±SEM): n 3; for IC50: read-out: DPPH scavenging IC50"}, "[2]": {"test": "ABTS free radical scavenging assay", "conditions": "for ABTS radical % Inhibition (Mean±SEM): n 3; for IC50: read-out: ABTS scavenging IC50"}, "[3]": {"target": "T1, butyrylcholinesterase (BChE) (Equus caballus, UniProt P81908)", "T1 sequence (P81908 whole entry)": "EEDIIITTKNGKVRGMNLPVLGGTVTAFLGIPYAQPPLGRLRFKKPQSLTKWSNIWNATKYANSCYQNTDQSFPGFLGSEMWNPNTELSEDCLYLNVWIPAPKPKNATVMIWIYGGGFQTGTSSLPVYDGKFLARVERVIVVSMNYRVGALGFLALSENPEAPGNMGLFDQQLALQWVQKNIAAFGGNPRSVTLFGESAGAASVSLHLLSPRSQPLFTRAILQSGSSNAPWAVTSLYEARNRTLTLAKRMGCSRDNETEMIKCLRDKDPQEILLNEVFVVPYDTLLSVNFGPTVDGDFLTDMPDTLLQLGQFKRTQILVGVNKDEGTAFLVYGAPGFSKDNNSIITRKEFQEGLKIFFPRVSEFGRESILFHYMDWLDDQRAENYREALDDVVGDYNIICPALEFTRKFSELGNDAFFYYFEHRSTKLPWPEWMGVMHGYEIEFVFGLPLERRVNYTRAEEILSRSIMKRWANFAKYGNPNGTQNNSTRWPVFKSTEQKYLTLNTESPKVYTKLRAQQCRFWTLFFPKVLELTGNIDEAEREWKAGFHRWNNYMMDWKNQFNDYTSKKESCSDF", "conditions": "n 3"}, "[4]": {"target": "T1, butyrylcholinesterase (BChE)", "test": "biochemical", "conditions": "read-out: BChE % Inhibition (Mean±SEM)"}}, "note": "Like-named read-outs stand apart in the source and are kept apart here."}
{"compound": "O=C1O[C@H]([C@@H](O)CO)C(O)=C1O", "note": "[Ascorbic Acid, reference compound]", "values": [{"measurement": "DPPH scavenging IC50", "setting": "[1]", "value": "<0.1", "unit": "µg/mL"}, {"measurement": "DPPH radical % Inhibition (Mean±SEM)", "setting": "[1]; 15.62 µg/mL", "value": "77.28±0.79", "unit": "%"}, {"measurement": "DPPH radical % Inhibition (Mean±SEM)", "setting": "[1]; 31.25 µg/mL", "value": "82.74±0.23", "unit": "%"}, {"measurement": "DPPH radical % Inhibition (Mean±SEM)", "setting": "[1]; 62.5 µg/mL", "value": "84.44±0.15", "unit": "%"}, {"measurement": "DPPH radical % Inhibition (Mean±SEM)", "setting": "[1]; 125 µg/mL", "value": "87.25±0.48", "unit": "%"}, {"measurement": "DPPH radical % Inhibition (Mean±SEM)", "setting": "[1]; 250 µg/mL", "value": "91.54±0.37", "unit": "%"}, {"measurement": "DPPH radical % Inhibition (Mean±SEM)", "setting": "[1]; 500 µg/mL", "value": "93.65±0.54", "unit": "%"}, {"measurement": "DPPH radical % Inhibition (Mean±SEM)", "setting": "[1]; 1000 µg/mL", "value": "95.63±0.12", "unit": "%"}, {"measurement": "IC50", "setting": "[1]", "value": 0.173, "unit": "µM"}, {"measurement": "ABTS scavenging IC50", "setting": "[2]", "value": "<0.1", "unit": "µg/mL"}, {"measurement": "ABTS radical % Inhibition (Mean±SEM)", "setting": "[2]; 15.62 µg/mL", "value": "77.65±0.32", "unit": "%"}, {"measurement": "ABTS radical % Inhibition (Mean±SEM)", "setting": "[2]; 31.25 µg/mL", "value": "79.29±0.91", "unit": "%"}, {"measurement": "ABTS radical % Inhibition (Mean±SEM)", "setting": "[2]; 62.5 µg/mL", "value": "81.75±0.85", "unit": "%"}, {"measurement": "ABTS radical % Inhibition (Mean±SEM)", "setting": "[2]; 125 µg/mL", "value": "84.68±0.56", "unit": "%"}, {"measurement": "ABTS radical % Inhibition (Mean±SEM)", "setting": "[2]; 250 µg/mL", "value": "85.34±0.47", "unit": "%"}, {"measurement": "ABTS radical % Inhibition (Mean±SEM)", "setting": "[2]; 500 µg/mL", "value": "88.25±0.87", "unit": "%"}, {"measurement": "ABTS radical % Inhibition (Mean±SEM)", "setting": "[2]; 1,000 µg/mL", "value": "92.36±0.65", "unit": "%"}, {"measurement": "IC50", "setting": "[2]", "value": 0.129, "unit": "µM"}]}
{"compound": "({3-[(4-Methoxy-2-Nitrophenyl) Carbamoyl] Propanoyl} Zincio 3-[(2-Methoxy-5-Nitrophenyl) Carbamoyl] Propanoate Pyridine [AAZ8]", "values": [{"measurement": "DPPH radical % Inhibition (Mean±SEM)", "setting": "[1]; 15.62 µg/mL", "value": "69.87±0.59", "unit": "%"}, {"measurement": "DPPH radical % Inhibition (Mean±SEM)", "setting": "[1]; 31.25 µg/mL", "value": "73.47±0.26", "unit": "%"}, {"measurement": "DPPH radical % Inhibition (Mean±SEM)", "setting": "[1]; 62.5 µg/mL", "value": "75.68±0.97", "unit": "%"}, {"measurement": "DPPH radical % Inhibition (Mean±SEM)", "setting": "[1]; 125 µg/mL", "value": "77.85±0.39", "unit": "%"}, {"measurement": "DPPH radical % Inhibition (Mean±SEM)", "setting": "[1]; 250 µg/mL", "value": "79.54±0.63", "unit": "%"}, {"measurement": "DPPH radical % Inhibition (Mean±SEM)", "setting": "[1]; 500 µg/mL", "value": "81.69±0.45", "unit": "%"}, {"measurement": "DPPH radical % Inhibition (Mean±SEM)", "setting": "[1]; 1000 µg/mL", "value": "83.97±0.12", "unit": "%"}, {"measurement": "IC50", "setting": "[1]", "value": 29, "unit": "µM"}, {"measurement": "BChE % Inhibition (Mean±SEM)", "setting": "[3]; 15.62 µg/mL", "value": "77.93±0.78", "unit": "%"}, {"measurement": "BChE % Inhibition (Mean±SEM)", "setting": "[3]; 31.25 µg/mL", "value": "79.31±0.67", "unit": "%"}, {"measurement": "BChE % Inhibition (Mean±SEM)", "setting": "[3]; 62.5 µg/mL", "value": "80.72±0.58", "unit": "%"}, {"measurement": "BChE % Inhibition (Mean±SEM)", "setting": "[3]; 125 µg/mL", "value": "81.64±1.04", "unit": "%"}, {"measurement": "BChE % Inhibition (Mean±SEM)", "setting": "[3]; 250 µg/mL", "value": "83.54±0.74", "unit": "%"}, {"measurement": "BChE % Inhibition (Mean±SEM)", "setting": "[3]; 500 µg/mL", "value": "84.13±0.45", "unit": "%"}, {"measurement": "BChE % Inhibition (Mean±SEM)", "setting": "[3]; 1,000 µg/mL", "value": "85.17±0.87", "unit": "%"}, {"measurement": "ABTS scavenging IC50", "setting": "[2]", "value": 29, "unit": "µg/mL"}, {"measurement": "ABTS radical % Inhibition (Mean±SEM)", "setting": "[2]; 15.62 µg/mL", "value": "65.39±0.89", "unit": "%"}, {"measurement": "ABTS radical % Inhibition (Mean±SEM)", "setting": "[2]; 31.25 µg/mL", "value": "70.28±0.36", "unit": "%"}, {"measurement": "ABTS radical % Inhibition (Mean±SEM)", "setting": "[2]; 62.5 µg/mL", "value": "73.62±0.29", "unit": "%"}, {"measurement": "ABTS radical % Inhibition (Mean±SEM)", "setting": "[2]; 125 µg/mL", "value": "77.45±0.87", "unit": "%"}, {"measurement": "ABTS radical % Inhibition (Mean±SEM)", "setting": "[2]; 250 µg/mL", "value": "78.36±0.58", "unit": "%"}, {"measurement": "ABTS radical % Inhibition (Mean±SEM)", "setting": "[2]; 500 µg/mL", "value": "79.27±0.64", "unit": "%"}, {"measurement": "ABTS radical % Inhibition (Mean±SEM)", "setting": "[2]; 1,000 µg/mL", "value": "81.35±0.35", "unit": "%"}, {"measurement": "IC50", "setting": "[2]", "value": 41, "unit": "µM"}]}
{"compound": "COc1ccc2c3c1O[C@H]1C[C@@H](O)C=C[C@@]31CCN(C)C2", "note": "[Galantamine]", "values": [{"measurement": "inhibition at 15.62 µg/mL", "setting": "[4]", "value": "82.76 ± 0.44", "unit": "%"}]}
